Measured values taken from ChEMBL document CHEMBL3621142, “Discovery and Evaluation of Clinical Candidate AZD3759, a Potent, Oral Active, Central Nervous System-Penetrant, Epidermal Growth Factor Receptor Tyrosine Kinase Inhibitor” (J Med Chem, 2015).
pIC50: −log10 of the molar value. Calls of active or inactive are those of the source. The calls are words filed in the database; no cut-off is given here.

Legend:
[1] = Ratio of unbound AUC (0 to 24 hrs) in brain to blood of Han Wistar rat at 20 mg/kg, po by LC-MS/MS analysis; assay type: ADME, organism-based; settings: brain and blood, read-out: K(p,uu,brain)
MDR1 (P-gp) = test: Efflux ratio of permeability from basolateral to apical side over apical to basolateral side in MDCK2-MDR1 cells; assay type: ADME, cell-based, Canis lupus familiaris; settings: dog, MDCK-MDR1
[2] = Permeability from apical to basolateral side in MDCK2-MDR1 cells; assay type: ADME, cell-based, Canis lupus familiaris, MDCK-II; settings: dog; for Papp A→B: MDCK-MDR1
BCRP [3] = test: in vitro; settings: dog
Description: Efflux ratio of permeability from basolateral to apical side over apical to basolateral side in BCRP transfected MDCK2 cells

[4] = (§1) Fraction unbound in Han Wistar rat brain at 5 uM by equilibrium dialysis method; assay type: ADME, tissue-based; settings: Han Wistar, brain
BCRP [5] = test: Permeability from apical to basolateral side in BCRP transfected MDCK2 cells; assay type: ADME, cell-based, Canis lupus familiaris, MDCK-II; settings: dog
[6] = (§2) Fraction unbound in Han Wistar rat blood at 5 uM by equilibrium dialysis method; assay type: ADME, tissue-based; settings: Han Wistar
[7] = Ratio of unbound AUC (0 to 24 hrs) in CSF to blood of Han Wistar rat at 20 mg/kg, po by LC-MS/MS analysis; assay type: ADME, organism-based; settings: CSF and blood
[8] = (§3) Elimination half life in Han Wistar rat at 1 mg/kg, iv; assay type: ADME, organism-based; settings: Han Wistar, in vivo, read-out: beta t1/2 (converted)
[9] = Clearance in Han Wistar rat at 1 mg/kg, iv; assay type: ADME, organism-based; settings: in vivo
[10] = (§4) AUC (0 to 7 hrs) in Han Wistar rat brain at 2 mg/kg, po by LC-MS/MS analysis; assay type: ADME, organism-based; parameters: dose 2 mg/kg, time < 7 hr, route oral; settings: Han Wistar, brain
[11] = Ratio of unbound AUC (0 to 7 hrs) in brain to blood of Han Wistar rat at 2 mg/kg, po by LC-MS/MS analysis; assay type: ADME, organism-based; settings: for Kp uu: Han Wistar, brain and blood, read-out: K(p,uu,brain)
[12] = (§5) AUC (0 to 7 hrs) in Han Wistar rat CSF at 2 mg/kg, po by LC-MS/MS analysis; assay type: ADME, organism-based, Cerebrospinal fluid; parameters: time < 7 hr, dose 2 mg/kg, route oral; settings: Han Wistar, CSF
[13] = AUC(0 to 24 hrs) in Han Wistar rat at 1 mg/kg, iv; assay type: ADME, organism-based; parameters: time < 24 hr, dose 1 mg/kg, route intravenous; settings: in vivo
[14] = Cmax in Han Wistar rat at 5 mg/kg, po; assay type: ADME, organism-based; parameters: dose 5 mg/kg, route oral; settings: in vivo
[15] = AUC(0 to 24 hrs) in Han Wistar rat at 5 mg/kg, po; assay type: ADME, organism-based; parameters: dose 5 mg/kg, time < 24 hr, route oral; settings: in vivo
[16] = Oral bioavailability in Han Wistar rat at 5 mg/kg; assay type: ADME, organism-based; settings: in vivo
[17] = (§6) Volume of distribution at steady state in Han Wistar rat at 1 mg/kg, iv; assay type: ADME, organism-based; settings: Han Wistar, in vivo, read-out: Vdss
[18] = Tmax in Han Wistar rat at 5 mg/kg, po; assay type: ADME, organism-based; settings: in vivo
[19] = Ratio of unbound AUC (0 to 7 hrs) in CSF to blood of Han Wistar rat at 2 mg/kg, po by LC-MS/MS analysis; assay type: ADME, organism-based; settings: for Kp uu: Han Wistar, CSF and blood
[20] = Drug metabolism in rat hepatocytes assessed as piperazine oxidation; assay type: ADME, cell-based, Hepatocyte
[21] = (§7) AUC (0 to 7 hrs) in Han Wistar rat blood at 2 mg/kg, po by LC-MS/MS analysis; assay type: ADME, organism-based; parameters: dose 2 mg/kg, time < 7 hr, route oral; settings: Han Wistar, blood
[22] = biological target: Epidermal growth factor receptor (Homo sapiens, UniProt P00533, L858R); assay type: cell-based, H3255
Chain of Epidermal growth factor receptor (Homo sapiens, UniProt P00533, L858R) (P00533 25-1210 L858R limits assumed): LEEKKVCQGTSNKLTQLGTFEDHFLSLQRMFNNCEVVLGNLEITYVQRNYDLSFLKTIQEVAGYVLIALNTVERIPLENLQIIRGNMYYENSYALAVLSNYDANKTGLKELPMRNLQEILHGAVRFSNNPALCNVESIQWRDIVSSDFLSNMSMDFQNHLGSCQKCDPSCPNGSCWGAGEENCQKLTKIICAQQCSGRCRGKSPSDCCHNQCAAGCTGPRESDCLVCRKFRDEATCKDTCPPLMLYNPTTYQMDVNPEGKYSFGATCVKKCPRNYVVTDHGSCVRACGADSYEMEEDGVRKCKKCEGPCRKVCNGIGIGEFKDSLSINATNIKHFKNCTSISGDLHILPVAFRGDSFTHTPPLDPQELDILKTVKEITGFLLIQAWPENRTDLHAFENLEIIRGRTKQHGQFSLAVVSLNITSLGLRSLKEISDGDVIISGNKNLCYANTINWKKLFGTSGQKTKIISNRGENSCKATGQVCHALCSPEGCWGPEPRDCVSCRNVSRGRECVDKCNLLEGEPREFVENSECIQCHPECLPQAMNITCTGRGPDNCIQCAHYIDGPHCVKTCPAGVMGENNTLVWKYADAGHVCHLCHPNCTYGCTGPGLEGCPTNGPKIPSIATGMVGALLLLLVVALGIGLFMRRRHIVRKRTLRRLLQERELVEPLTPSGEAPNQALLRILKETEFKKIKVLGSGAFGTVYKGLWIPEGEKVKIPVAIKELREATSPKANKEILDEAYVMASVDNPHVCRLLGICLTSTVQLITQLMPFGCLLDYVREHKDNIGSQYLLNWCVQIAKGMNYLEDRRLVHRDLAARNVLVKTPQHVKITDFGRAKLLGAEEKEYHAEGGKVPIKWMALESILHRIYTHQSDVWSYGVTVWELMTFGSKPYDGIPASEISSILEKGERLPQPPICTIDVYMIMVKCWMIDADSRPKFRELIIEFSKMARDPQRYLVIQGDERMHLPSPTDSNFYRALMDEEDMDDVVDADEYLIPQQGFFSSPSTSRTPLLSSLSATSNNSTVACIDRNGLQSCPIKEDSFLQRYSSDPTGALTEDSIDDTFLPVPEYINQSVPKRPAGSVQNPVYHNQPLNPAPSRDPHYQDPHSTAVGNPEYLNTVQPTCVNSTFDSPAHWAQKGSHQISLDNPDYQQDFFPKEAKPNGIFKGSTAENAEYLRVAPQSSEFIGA

[23] = (§8) AUC(0 to 24 hrs) in Han Wistar rat at 2 mg/kg, po; assay type: ADME, organism-based; parameters: dose 2 mg/kg, time < 24 hr, route oral; settings: Han Wistar, in vivo
Rattus norvegicus [24] = test: (§9) Oral bioavailability in Han Wistar rat at 2 mg/kg; assay type: ADME, organism-based; settings: in vivo
Cerebrospinal fluid = test: as §5; assay type: ADME, organism-based; parameters: time < 7 hr, dose 2 mg/kg, route oral; settings: in vivo, 7 h
[25] = AUC (0 to 7 hrs) in Han Wistar rat blood at 20 mg/kg, po measured after 0.5 to 24 hrs by LC-MS/MS analysis; assay type: ADME, organism-based; parameters: time < 7 hr, dose 20 mg/kg, route oral
[26] = AUC (0 to 7 hrs) in Han Wistar rat CSF at 20 mg/kg, po measured after 0.5 to 24 hrs by LC-MS/MS analysis; assay type: ADME, organism-based, Cerebrospinal fluid; parameters: time < 7 hr, dose 20 mg/kg, route oral
[27] = AUC (0 to 7 hrs) in Han Wistar rat brain at 20 mg/kg, po measured after 0.5 to 24 hrs by LC-MS/MS analysis; assay type: ADME, organism-based; parameters: time < 7 hr, dose 20 mg/kg, route oral
Rattus norvegicus [28] = test: as §3; assay type: ADME, organism-based; settings: in vivo
Brain [29] = test: as §4; assay type: ADME, organism-based; parameters: dose 2 mg/kg, time < 7 hr, route oral; settings: in vivo, 7 h
Rattus norvegicus [30] = test: as §8; assay type: ADME, organism-based; parameters: dose 2 mg/kg, time < 24 hr, route oral; settings: in vivo, 24 h
Brain [31] = test: as §1; assay type: ADME, tissue-based; settings: 5 µM
Rattus norvegicus [32] = test: as §6; assay type: ADME, organism-based; settings: in vivo
Blood [33] = test: as §7; assay type: ADME, organism-based; parameters: dose 2 mg/kg, time < 7 hr, route oral; settings: in vivo, 7 h
Blood [34] = test: as §2; assay type: ADME, tissue-based; settings: 5 µM
Cytochrome P450 2C9 = Cytochrome P450 2C9 (Homo sapiens, UniProt P11712); test: Inhibition of human CYP2C9; assay type: ADME
Chain of Cytochrome P450 2C9 (P11712 whole entry): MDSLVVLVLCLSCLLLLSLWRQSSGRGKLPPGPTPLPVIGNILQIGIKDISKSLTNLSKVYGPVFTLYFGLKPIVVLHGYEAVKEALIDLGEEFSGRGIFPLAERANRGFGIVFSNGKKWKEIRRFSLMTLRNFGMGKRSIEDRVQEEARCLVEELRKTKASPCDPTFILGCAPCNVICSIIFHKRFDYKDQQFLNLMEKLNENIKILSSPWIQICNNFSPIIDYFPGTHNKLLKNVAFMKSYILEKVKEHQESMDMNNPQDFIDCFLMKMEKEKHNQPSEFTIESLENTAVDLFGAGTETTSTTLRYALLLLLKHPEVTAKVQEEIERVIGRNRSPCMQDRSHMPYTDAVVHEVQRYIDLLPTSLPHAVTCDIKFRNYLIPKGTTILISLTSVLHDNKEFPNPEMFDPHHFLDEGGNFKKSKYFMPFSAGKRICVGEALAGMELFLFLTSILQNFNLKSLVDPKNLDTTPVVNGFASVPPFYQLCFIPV

[35] = Clearance in Han Wistar rat at 2 mg/kg, po; assay type: ADME, organism-based; settings: in vivo
[36] = biological target: Voltage-gated inwardly rectifying potassium channel KCNH2 (Homo sapiens, UniProt Q12809); test: Inhibition of human ERG by patch clamp assay
Chain of Voltage-gated inwardly rectifying potassium channel KCNH2 (Q12809 whole entry): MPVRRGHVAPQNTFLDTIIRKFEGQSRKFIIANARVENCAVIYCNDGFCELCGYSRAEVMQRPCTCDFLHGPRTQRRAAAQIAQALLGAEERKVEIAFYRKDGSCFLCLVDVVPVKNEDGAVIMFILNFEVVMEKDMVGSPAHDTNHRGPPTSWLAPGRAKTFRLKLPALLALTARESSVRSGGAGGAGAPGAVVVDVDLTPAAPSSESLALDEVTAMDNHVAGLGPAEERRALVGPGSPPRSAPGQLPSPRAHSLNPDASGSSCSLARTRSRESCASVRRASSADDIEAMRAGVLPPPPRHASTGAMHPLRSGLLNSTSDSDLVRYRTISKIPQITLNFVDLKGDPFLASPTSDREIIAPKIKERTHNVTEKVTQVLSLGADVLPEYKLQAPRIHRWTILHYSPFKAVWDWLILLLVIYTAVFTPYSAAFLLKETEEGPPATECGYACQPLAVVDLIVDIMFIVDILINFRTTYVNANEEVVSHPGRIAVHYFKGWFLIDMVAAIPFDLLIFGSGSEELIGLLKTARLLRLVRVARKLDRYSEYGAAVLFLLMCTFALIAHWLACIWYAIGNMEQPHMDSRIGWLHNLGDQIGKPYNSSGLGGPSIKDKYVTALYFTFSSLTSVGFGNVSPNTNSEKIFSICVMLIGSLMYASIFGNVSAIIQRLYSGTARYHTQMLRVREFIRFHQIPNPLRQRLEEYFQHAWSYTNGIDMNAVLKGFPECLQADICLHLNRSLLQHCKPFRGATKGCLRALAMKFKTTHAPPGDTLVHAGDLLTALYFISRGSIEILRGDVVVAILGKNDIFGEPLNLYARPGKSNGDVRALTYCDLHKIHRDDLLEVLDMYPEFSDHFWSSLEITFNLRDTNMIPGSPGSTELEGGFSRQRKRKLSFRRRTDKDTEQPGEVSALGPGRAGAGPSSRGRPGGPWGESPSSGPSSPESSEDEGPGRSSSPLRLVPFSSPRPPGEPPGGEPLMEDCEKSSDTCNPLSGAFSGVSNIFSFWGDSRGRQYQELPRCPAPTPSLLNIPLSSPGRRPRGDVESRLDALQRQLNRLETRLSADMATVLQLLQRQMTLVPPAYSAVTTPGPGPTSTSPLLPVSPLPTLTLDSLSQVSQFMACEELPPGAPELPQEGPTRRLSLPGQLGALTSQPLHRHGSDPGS

[37] = biological target: Epidermal growth factor receptor (Homo sapiens, UniProt P00533, EX19DEL); test: Inhibition of EGFR exon19 deletion mutant phosphorylation in human PC9 cells; assay type: cell-based, PC-9
Chain of Epidermal growth factor receptor (Homo sapiens, UniProt P00533, EX19DEL) (P00533 whole entry, looked up, stated change not applied): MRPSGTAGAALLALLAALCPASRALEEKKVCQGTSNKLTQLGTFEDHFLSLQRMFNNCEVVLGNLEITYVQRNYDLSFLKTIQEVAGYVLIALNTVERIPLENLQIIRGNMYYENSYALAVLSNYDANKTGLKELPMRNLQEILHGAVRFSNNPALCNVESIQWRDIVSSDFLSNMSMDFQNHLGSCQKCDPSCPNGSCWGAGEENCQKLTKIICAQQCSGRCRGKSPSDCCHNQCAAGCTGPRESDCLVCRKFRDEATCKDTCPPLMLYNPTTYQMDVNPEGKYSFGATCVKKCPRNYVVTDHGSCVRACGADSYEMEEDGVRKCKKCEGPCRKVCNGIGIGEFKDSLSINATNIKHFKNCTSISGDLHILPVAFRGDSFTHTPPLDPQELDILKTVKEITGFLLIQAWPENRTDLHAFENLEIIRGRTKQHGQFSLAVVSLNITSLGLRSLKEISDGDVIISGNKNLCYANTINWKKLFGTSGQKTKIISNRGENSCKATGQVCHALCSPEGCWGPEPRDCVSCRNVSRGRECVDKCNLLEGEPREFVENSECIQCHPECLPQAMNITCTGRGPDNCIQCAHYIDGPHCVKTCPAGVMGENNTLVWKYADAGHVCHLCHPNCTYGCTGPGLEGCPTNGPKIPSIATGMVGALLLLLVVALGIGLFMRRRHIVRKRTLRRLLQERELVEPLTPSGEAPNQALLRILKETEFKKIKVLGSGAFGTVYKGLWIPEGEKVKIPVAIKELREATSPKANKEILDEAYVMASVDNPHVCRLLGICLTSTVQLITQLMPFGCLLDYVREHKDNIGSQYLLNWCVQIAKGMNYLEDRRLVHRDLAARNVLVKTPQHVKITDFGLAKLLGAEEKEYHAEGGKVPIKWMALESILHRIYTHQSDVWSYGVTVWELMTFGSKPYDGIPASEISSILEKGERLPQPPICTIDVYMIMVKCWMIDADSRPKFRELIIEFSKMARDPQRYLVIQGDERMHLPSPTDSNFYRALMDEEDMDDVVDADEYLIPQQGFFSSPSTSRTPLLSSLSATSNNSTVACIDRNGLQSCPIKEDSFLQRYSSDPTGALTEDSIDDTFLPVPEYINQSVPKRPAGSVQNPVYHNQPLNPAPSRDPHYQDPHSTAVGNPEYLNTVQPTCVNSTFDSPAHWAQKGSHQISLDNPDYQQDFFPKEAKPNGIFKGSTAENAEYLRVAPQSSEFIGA

[38] = as §9; assay type: ADME, organism-based; settings: Han Wistar, in vivo
[39] = Elimination half life in Han Wistar rat at 2 mg/kg, po; assay type: ADME, organism-based; settings: in vivo, read-out: beta t1/2 (converted)
Cytochrome P450 3A4 = Cytochrome P450 3A4 (Homo sapiens, UniProt P08684); test: Inhibition of human CYP3A4; assay type: ADME
Chain of Cytochrome P450 3A4 (P08684 whole entry): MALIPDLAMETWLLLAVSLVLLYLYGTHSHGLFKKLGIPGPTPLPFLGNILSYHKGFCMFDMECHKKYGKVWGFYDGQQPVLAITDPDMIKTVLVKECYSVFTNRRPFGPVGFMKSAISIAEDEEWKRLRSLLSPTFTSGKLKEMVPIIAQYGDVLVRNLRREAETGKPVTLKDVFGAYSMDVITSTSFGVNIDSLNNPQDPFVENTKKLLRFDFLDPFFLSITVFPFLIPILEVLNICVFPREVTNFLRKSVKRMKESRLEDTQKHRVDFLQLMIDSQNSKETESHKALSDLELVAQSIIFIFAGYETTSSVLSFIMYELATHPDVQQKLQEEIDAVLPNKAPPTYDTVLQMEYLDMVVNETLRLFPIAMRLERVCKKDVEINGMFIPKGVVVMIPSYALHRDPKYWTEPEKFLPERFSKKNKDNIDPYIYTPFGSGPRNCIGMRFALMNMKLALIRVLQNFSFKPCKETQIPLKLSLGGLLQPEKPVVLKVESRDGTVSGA

Cytochrome P450 2D6 = Cytochrome P450 2D6 (Homo sapiens, UniProt P10635); test: Inhibition of human CYP2D6; assay type: ADME
Chain of Cytochrome P450 2D6 (P10635 whole entry): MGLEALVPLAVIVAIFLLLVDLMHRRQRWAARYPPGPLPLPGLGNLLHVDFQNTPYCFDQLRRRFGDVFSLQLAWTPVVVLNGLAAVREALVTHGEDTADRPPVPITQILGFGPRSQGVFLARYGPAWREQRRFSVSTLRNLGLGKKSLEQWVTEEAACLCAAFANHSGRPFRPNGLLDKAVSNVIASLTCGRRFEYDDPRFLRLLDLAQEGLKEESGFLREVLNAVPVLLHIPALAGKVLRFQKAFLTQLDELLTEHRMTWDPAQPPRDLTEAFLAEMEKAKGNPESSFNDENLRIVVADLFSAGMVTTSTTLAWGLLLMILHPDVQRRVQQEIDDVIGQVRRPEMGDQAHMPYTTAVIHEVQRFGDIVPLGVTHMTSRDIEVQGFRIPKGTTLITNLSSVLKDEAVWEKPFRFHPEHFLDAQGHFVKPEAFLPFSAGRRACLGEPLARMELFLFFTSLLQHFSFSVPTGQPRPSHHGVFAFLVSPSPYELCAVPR

Rattus norvegicus [40] = test: Volume of distribution at steady state in Han Wistar rat at 2 mg/kg, […]; assay type: ADME, organism-based; settings: in vivo
Mus musculus = test: Toxicity in PC9 cells expressing EGFR exon19 deletion mutant xenografted mouse assessed as loss of body weight at 15 mg/kg, qd; assay type: organism-based, PC-9; settings: in vivo
PC-9 [41] = test: Antitumor activity against human PC9 cells expressing EGFR exon19 deletion mutant xenografted in mouse at 15 mg/kg, qd measured after 4 weeks; assay type: functional, organism-based
PC-9 [42] = test: Antitumor activity against human PC9 cells expressing EGFR exon19 deletion mutant xenografted in mouse assessed as tumor regression at 15 mg/kg, qd measured after 4 weeks; assay type: functional, organism-based

| Kp uu [1] | efflux ratio (MDR1 (P-gp)) | Papp A→B [2] | fraction unbound at 5 µM [4] | Papp A→B (BCRP [5]) | Kp uu [7] | SMILES | fraction unbound at 5 µM [6] | AUC(0-t) at 7 h [10] | Kp uu [11] | AUC(0-t) at 7 h [12] | Kp uu [19] | AUC(0-t) at 7 h [21] | pIC50 [22] | also measured |
| --- | --- | --- | --- | --- | --- | --- | --- | --- | --- | --- | --- | --- | --- | --- |
| 0.0066 | 11 | 2.5 ×10⁻⁶ cm/s | 0.0054 | 1.3 ×10⁻⁶ cm/s | 0.27 | CN(C)C/C=C/C(=O)Nc1cc2c(Nc3ccc(F)c(Cl)c3)ncnc2cc1O[C@H]1CCOC1 [AFATINIB] | 0.041 | – | – | – | – | – | – | efflux ratio (BCRP [3]): 59 |
| 0.021 | – | 8.3 ×10⁻⁶ cm/s | 0.0039 | 4.2 ×10⁻⁶ cm/s | 0.088 | COc1cc2ncnc(Nc3ccc(F)c(Cl)c3)c2cc1OCCCN1CCOCC1 [GEFITINIB] | – | – | – | – | – | – | – | AUC(0-t) at 7 h [25]: 31.9 µM·h; AUC(0-t) at 7 h [26]: 0.093 µM·h; AUC(0-t) at 7 h [27]: 5.65 µM·h |
| – | – | – | – | – | – | COc1cc2ncnc(Nc3cccc(Cl)c3F)c2cc1OC(=O)N1CCN(C)C2CC21 (stereo in doubt; 1j) | – | – | – | – | – | – | – | beta t1/2 (Rattus norvegicus [28]): 1.3 h; AUC (Brain [29]): 0.727 µM·h; AUC (Rattus norvegicus [30]): 2.315 µM·h; K(p,uu,brain) ([11]; brain): 0.74; AUC (Cerebrospinal fluid): 0.028 µM·h; Papp ([2]; mdck-ii): 76 ×10⁻⁶ cm/s; Fu (Brain [31]): 1.8%; Vdss (Rattus norvegicus [32]): 2.5 L/kg; F (Rattus norvegicus [24]): 84%; K(p,uu,CSF) [19]: 1.6; AUC (Blood [33]): 0.74 µM·h; Fu (Blood [34]): 2.4% |
| – | 0.33 | 32 ×10⁻⁶ cm/s | 0.03 | – | – | COc1cc2ncnc(Nc3cccc(Cl)c3F)c2cc1CN1CCOCC1 | 0.078 | 1.01 µM·h | 0.47 | 0.05 µM·h | 0.76 | 0.834 µM·h | 8.18 | pIC50 (Cytochrome P450 2C9): < 5.00; CL/F [35]: 59 mL/min/kg; pIC50 [36]: 4.77; pIC50 [37]: 8.42; bioavailability [38]: 44%; half-life [39]: 1.1 h; pIC50 (Cytochrome P450 3A4): < 5.00; pIC50 (Cytochrome P450 2D6): < 5.00; Vdss (Rattus norvegicus [40]): 2.8 L/kg |
| 0.11 | 1.7 | 19 ×10⁻⁶ cm/s | 0.029 | 14 ×10⁻⁶ cm/s | 0.29 | C#Cc1cccc(Nc2ncnc3cc(OCCOC)c(OCCOC)cc23)c1 [ERLOTINIB] | 0.045 | – | – | – | – | – | – | efflux ratio (BCRP [3]): 5.4; Activity (Mus musculus): Toxic; Activity (PC-9 [41]): Active; Activity (PC-9 [42]): Active |

| SMILES | Kp uu [1] | efflux ratio (MDR1 (P-gp)) | Papp A→B [2] | fraction unbound at 5 µM [4] | Papp A→B (BCRP [5]) | Kp uu [7] | fraction unbound at 5 µM [6] | AUC(0-t) at 7 h [10] | Kp uu [11] | AUC(0-t) at 7 h [12] | Kp uu [19] | AUC(0-t) at 7 h [21] | pIC50 [22] | also measured |
| --- | --- | --- | --- | --- | --- | --- | --- | --- | --- | --- | --- | --- | --- | --- |
| COc1cc2ncnc(Nc3cccc(Cl)c3F)c2cc1OC(=O)N1CCN(C)CC1 | – | 0.37 | 28 ×10⁻⁶ cm/s | 0.025 | – | – | 0.084 | 0.825 µM·h | 0.34 | 0.031 µM·h | 0.52 | 0.722 µM·h | 8.30 | half-life [8]: 2.6 h; clearance [9]: 22 mL/min/kg; AUC(0-t) at 24 h [13]: 1.71 µM·h; Cmax [14]: 2020 nM; AUC(0-t) at 24 h [15]: 3.91 µM·h; bioavailability [16]: 45%; Vd [17]: 1.8 L/kg; Tmax [18]: 0.25 h; Drug metabolism [20]: metabolite_detected |
| COc1cc2ncnc(Nc3cccc(Cl)c3F)c2cc1OC(=O)N1CCN(C)C2CC21 (stereo in doubt; 1i) | – | – | 67 ×10⁻⁶ cm/s | 0.019 | – | – | 0.028 | 0.585 µM·h | 0.51 | 0.019 µM·h | 0.9 | 0.786 µM·h | – | half-life [8]: 0.9 h; clearance [9]: 28 mL/min/kg; AUC(0-t) at 24 h [23]: 1.57 µM·h; Vd [17]: 2 L/kg; F (Rattus norvegicus [24]): 52% |
| COc1cc2ncnc(Nc3cccc(Cl)c3F)c2cc1OC(=O)N1C[C@@H]2C[C@H]1CN2C | – | 0.39 | 14 ×10⁻⁶ cm/s | 0.016 | – | – | 0.134 | 0.332 µM·h | 0.086 | – | – | 0.454 µM·h | 8.64 | AUC (Cerebrospinal fluid; BLD = below limit of detection): BLD; K(p,uu,CSF) ([19]; BLD = below limit of detection): BLD |
